Source: patent US9328138B2 (priority 2011, dated 2016)
Structures can show the parent of a compound that is named as a salt.

Experiments:
[1] = molecular target: T1, HCV genotype 1b (BK) NS3 modified enzyme with a R155K mutation (Hepatitis C virus genotype 1b, UniProt P26663, R1181K); assay: HCV NS3 protease time-resolved fluorescence (TRF) assay, genotype 1b R155K; format: biochemical; conditions: Ki 1b R155K
T1 construct: HCV genotype 1b (BK) NS3 modified enzyme
Outline: (§1)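 IC50 values derive from 4-parameter fitting of TRF signal after a 6 h room-temperature cleavage of 25 nM peptide substrate by NS3/NS4A that had been pre-incubated 10 min with compound.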

[2] = molecular target: HCV NS3 protease genotype 3a (3A-1) (Hepatitis C virus genotype 3a, UniProt Q81258); assay: HCV NS3 protease time-resolved fluorescence (TRF) assay, genotype 3a; format: biochemical; conditions: Ki 3a
Outline: as §1

[3] = genotype 1b (BK) NS3 R155K, single value
[4] = first of two values printed in the cell (not explained)
[5] = second of two values printed in the cell (not explained)

C=C[C@@H]1C[C@]1(NC(=O)[C@@H]1C[C@@H]2CN1C(=O)[C@H](C(C)(C)C)NC(=O)O[C@@H]1CCC[C@H]1CCCCCc1c(nc3ccccc3c1OCCN1CCOCC1)O2)C(=O)NS(=O)(=O)C1(COC)CC1 [Example 61, (3aR,7S,10S,12R,24aR)-7-tert-butyl-N-[(1R,2S)-2-ethenyl-1-({[1-(methoxymethyl)cyclopropyl]sulfonyl}carbamoyl)cyclopropyl]-19-[2-(morpholin-4-yl)ethoxy]-5,8-dioxo-1,2,3,3a,5,6,7,8,11,12,20,21,22,23,24,24a-hexadecahydro-10H-9,12-methanocyclopenta[18,19][1,10,3,6]dioxadiazacyclononadecino[11,12-b]quinoline-10-carboxamide]
Ki [1, 3]: 0.7 nM
Ki [2]: 20 nM

C=C[C@@H]1C[C@]1(NC(=O)[C@@H]1C[C@@H]2CN1C(=O)[C@H](C1CCCC1)NC(=O)O[C@@H]1CCC[C@H]1CC/C=C/Cc1c(nc3ccccc3c1OCCCn1cccc1)O2)C(=O)NS(=O)(=O)C1(C)CC1 [Example 55, (3aR,7S,10S,12R,21E,24aS)-7-cyclopentyl-N-[(1R,2S)-2-ethenyl-1-{[(1-methylcyclopropyl)sulfonyl]carbamoyl}cyclopropyl]-5,8-dioxo-19-[3-(1H-pyrrol-1-yl)propoxy]-1,2,3,3a,5,6,7,8,11,12,20,23,24,24a-tetradecahydro-10H-9,12-methanocyclopenta[18,19][1,10,3,6] dioxadiazacyclononadecino[11,12-b] quinoline-10-carboxamide]
Ki [1, 3]: 0.22 nM
Ki [2]: 3.9 nM

COc1c2c(nc3ccccc13)O[C@@H]1C[C@@H](C(=O)N[C@]3(C(=O)NS(=O)(=O)C4CC4)C[C@H]3C3CC3)N(C1)C(=O)[C@H](C1CCCC1)NC(=O)O[C@@H]1CCC[C@H]1CC/C=C/C2 [Example 13, (3aR,7S,10S,12R,21E,24aS)-7-cyclopentyl-N-[(1S,2R)-2-[(cyclopropylsulfonyl)carbamoyl]-1,1′-bi(cyclopropyl)-2-yl]-19-methoxy-5,8-dioxo-1,2,3,3a,5,6,7,8,11,12,20,23,24,24a-tetradecahydro-10H-9,12-methanocyclopenta[18,19][1,10,3,6] dioxadiazacyclononadecino[11,12-b]quinoline-10-carboxamide]
Ki [1, 3]: 0.93 nM
Ki [2]: 15 nM

C=C[C@@H]1C[C@]1(NC(=O)[C@@H]1C[C@@H]2CN1C(=O)[C@H](C(C)(C)C)NC(=O)O[C@@H]1C[C@H]1CCCCCc1c(nc3ccccc3c1OC1CC3CCC(C1)N3)O2)C(=O)NS(=O)(=O)C1(C)CC1 (single isomer, unassigned) [Example 279, trifluoroacetate]
Ki [1, 4]: 0.012 nM
Ki [1, 5]: 0.145 nM
Ki [2]: 2.6 nM

C=C[C@@H]1C[C@]1(NC(=O)[C@@H]1C[C@@H]2CN1C(=O)[C@H](C1CCCCC1)NC(=O)O[C@@H]1C[C@H]1CCCCCc1c(nc3ccccc3c1OCCCN1CCC(F)(F)CC1)O2)C(=O)NS(=O)(=O)C1(C)CC1 [Example 170]
Ki [1, 3]: 1.1 nM
Ki [2]: 21 nM

C=C[C@@H]1C[C@]1(NC(=O)[C@@H]1C[C@@H]2CN1C(=O)[C@H](C(C)(C)C)NC(=O)O[C@@H]1C[C@H]1CCCCCc1c(nc3ccccc3c1OCCCN1CC(O)(c3ccccc3)C1)O2)C(=O)NS(=O)(=O)C1(C)CC1 [Example 193, (1aR,5S,8S,10R,22aR)-5-tert-butyl-N-[(1R,2S)-2-ethenyl-1-{[(1-methylcyclopropyl)sulfonyl]carbamoyl}cyclopropyl]-17-[3-(3-hydroxy-3-phenylazetidin-1-yl)propoxy]-3,6-dioxo-1,1a,3,4,5,6,9,10,18,19,20, 21,22,22a-tetradeca hydro-8H-7,10-methanocyclopropa[18,19][1,10,3,6] dioxadiazacyclononadecino[11,12-b] quinoline-8-carboxamide]
Ki [1, 3]: 0.16 nM
Ki [2]: 1.5 nM

C=C[C@@H]1C[C@]1(NC(=O)[C@@H]1C[C@@H]2CN1C(=O)[C@H](C(C)(C)C)NC(=O)O[C@@H]1C[C@H]1CCCCCc1c(nc3ccccc3c1OCC1CCCN(CC)C1)O2)C(=O)NS(=O)(=O)C1(C)CC1 (stereo partly drawn) [Example 139, (1aR,5S,8S,10R,22aR)-5-tert-butyl-N-[(1R,2S)-2-ethenyl-1-{[(1-methylcyclopropyl)sulfonyl]carbamoyl}cyclopropyl]-17-[(1-ethylpiperidin-3-yl)methoxy]-3,6-dioxo-1,1a,3,4,5,6,9,10,18,19, 20,21,22,22a-tetradeca hydro-8H-7,10-methanocyclopropa[18,19] [1,10,3,6]dioxadiazacyclo nonadecino[11,12-b]quinoline-8-carboxamide]
Ki [1, 3]: 0.1 nM
Ki [2]: 0.38 nM

C=C[C@@H]1C[C@]1(NC(=O)[C@@H]1C[C@@H]2CN1C(=O)[C@H](C1CCCCC1)NC(=O)O[C@@H]1C[C@H]1CCCCCc1c(nc3ccccc3c1OCCCNC1CCC1)O2)C(=O)NS(=O)(=O)C1(C)CC1 [Example 242, N-(3-{[(1aR,5S,8S,10R,22aR)-5-cyclohexyl-8-{[(1R,2S)-2-ethenyl-1-{[(1-methylcyclopropyl)sulfonyl]carbamoyl}cyclopropyl]carbamoyl}-3,6-dioxo-1,1a,3,4,5,6,9,10,18,19,20,21,22,22a-tetradecahydro-8H-7,10-methanocyclopropa[18,19][1,10,3,6]dioxadiazacyclononadecino[11,12-b]quinolin-17-yl]oxy}propyl)cyclobutanaminium formate]
Ki [1, 4]: 0.013 nM
Ki [1, 5]: 0.072 nM
Ki [2]: 0.935 nM

C=C[C@@H]1C[C@]1(NC(=O)[C@@H]1C[C@@H]2CN1C(=O)[C@H](C(C)(C)C)NC(=O)O[C@@H]1C[C@H]1CCCCCc1c(nc3ccccc3c1OCCCCN1CCOCC1)O2)C(=O)NS(=O)(=O)C1(C)CC1 [Example 150, (1aR,5S,8S,10R,22aR)-5-tert-butyl-N-[(1R,2S)-2-ethenyl-1-{[(1-methylcyclopropyl)sulfonyl]carbamoyl}cyclopropyl]-17-[4-(morpholin-4-yl)butoxy]-3,6-dioxo-1,1a,3,4,5,6,9,10,18,19,20,21, 22,22a-tetradecahydro-8H-7,10-methanocyclopropa[18,19][1,10,3,6] dioxadiazacyclononadecino [11,12-b]quinoline-8-carboxamide]
Ki [1, 3]: 0.12 nM
Ki [2]: 1.3 nM

C=C[C@@H]1C[C@]1(NC(=O)[C@@H]1C[C@@H]2CN1C(=O)[C@H](C1CCCC1)NC(=O)N1CC[C@@H](C1)OCCC/C=C/Cc1c(nc3ccccc3c1OCC)O2)C(=O)NS(=O)(=O)C1CC1 [Example 16, (2R,4S,7S,13S,18E)-7-cyclopentyl-N-{(1R,2S)-1-[(cyclopropylsulfonyl)carbamoyl]-2-ethenylcyclo-propyl}-21-ethoxy-6,9-dioxo-3,4,6,7,8,9,12,13, 15,16,17,20-dodecahydro-2H,11H-2,5:10,13-dimethano[1,14,5,7,10]dioxatriazacyclodocosino [15,16-b]quinoline-4-carboxamide]
Ki [1, 3]: 1.1 nM
Ki [2]: 70 nM

C=C[C@@H]1C[C@]1(NC(=O)[C@@H]1C[C@@H]2CN1C(=O)[C@H](C1CCCC1)NC(=O)O[C@@H]1CCC[C@H]1CC/C=C/Cc1c(nc3ccccc3c1OC(=O)NC(C)C)O2)C(=O)NS(=O)(=O)C1CC1 [Example 93, (3aR,7S,10S,12R,21E,24aS)-7-cyclopentyl-10-({(1R,2S)-1-[(cyclopropylsulfonyl)carbamoyl]-2-ethenylcyclopropyl}carbamoyl)-5,8-dioxo-1,2,3,3a,5,6,7,8,11,12,20,23,24,24a-tetradecahydro-10H-9,12-methanocyclopenta[18,19][1,10,3,6]dioxadiazacyclononadecino[11,12-b]quinolin-19-yl propan-2-ylcarbamate]
Ki [1, 3]: 0.26 nM
Ki [2]: 2.8 nM

C=C[C@@H]1C[C@]1(NC(=O)[C@@H]1C[C@@H]2CN1C(=O)[C@H](C1(C)CCCCC1)NC(=O)O[C@@H]1C[C@H]1CCCCCc1c(nc3ccccc3c1OC1CC3CCC(C1)N3C)O2)C(=O)NS(=O)(=O)C1(C)CC1 (stereo partly drawn) [Example 263, (1aR,5S,8S,10R,22aR)—N-[(1R,2S)-2-ethenyl-1-{[(1-methylcyclopropyl)sulfonyl]carbamoyl}cyclopropyl]-17-[(8-methyl-8-azabicyclo[3.2.1]oct-3-yl)oxy]-5-(1-methylcyclohexyl)-3,6-dioxo-1,1a,3,4,5,6,9,10,18,19,20,21,22,22a-tetradecahydro-8H-7,10-methanocyclopropa[18,19][1,10,3,6]dioxadiazacyclononadecino[11,12-b]quinoline-8-carboxamide]
Ki [1, 4]: 0.006 nM
Ki [1, 5]: 0.011 nM
Ki [2]: 0.041 nM

C=C[C@@H]1C[C@]1(NC(=O)[C@@H]1C[C@@H]2CN1C(=O)[C@H](C(C)(C)C)NC(=O)O[C@@H]1C[C@H]1CCCCCc1c(nc3cc(F)ccc3c1OCCCN1CCOCC1)O2)C(=O)NS(=O)(=O)C1(C)CC1 [Example 152, (1aR,5S,8S,10R,22aR)-5-tert-butyl-N-[(1R,2S)-2-ethenyl-1-{[(1-methylcyclopropyl)sulfonyl]carbamoyl}cyclopropyl]-14-fluoro-17-[3-(morpholin-4-yl)propoxy]-3,6-dioxo-1,1a,3,4,5,6,9, 10,18,19,20,21,22,22a-tetradecahydro-8H-7,10-methanocyclopropa[18,19] [1,10,3,6]dioxadiaza cyclononadecino[11,12-b]quinoline-8-carboxamide]
Ki [1, 3]: 0.25 nM
Ki [2]: 1.5 nM
